The source of these data is patent US20230278266A1, “MICRONEEDLE ARRAYS FORMED FROM POLYMER FILMS” (TransDerm, Inc., priority 2007, published 2023).

In the data set the test system is fresh human skin explant. The data set is described as follows: Gentian violet delivery into excised human skin explant by loaded microneedle array. Type of data set: in vitro ADME. The note with it: human skin explant from abdominoplasty, red fluorescence filters. From the text: FIGS. 3A and 3B show cross-sections of excised human skin showing penetration by needles loaded with gentian violet. […] The sample was sectioned at an angle nearly parallel to the needle array geometry, allowing observation of multiple needles. The delivery device backing material is visible as a layer between the OCT and the skin sample. The left needle is itself cross-sectioned, showing the gentian violet solution loaded into the needle shaft. The middle needle appears to penetrate both the stratum corneum and the epidermis, with the needle tip in full contact with the dermis. A third needle (on the right) is visible but is out of the focal plane. […] The Gentian violet was detected using a fluorescent microscope under red fluorescence filters (excitation 546 nm; emission 580 nm). The skin section was stained with DAPI to allow nuclei visualization.
A microneedle array in the transdermal delivery device loaded with gentian violet solution was applied to fresh human skin explant (resulting from abdominoplasty procedure) and immediately placed into tissue freezing medium (OCT) and frozen to -28° C. The sample was sectioned at an angle nearly parallel to the needle array geometry, and multiple needles were observed (FIG. 3). In FIG. 3, the microneedle array transdermal delivery device backing material is visible as a layer between the OCT and the skin sample. […]

For the molecule `CN(C)c1ccc(C(=C2C=CC(=[N+](C)C)C=C2)c2ccc(N(C)C)cc2)cc1` [gentian violet], the “skin layer reached, fluorescence microscopy of skin section” value is “delivered to human epidermis and dermis”.
